Measurements: patent US20190328721A1, “METHOD OF ACTIVATING DENDRITIC CELLS” (KOREA INSTITUTE OF SCIENCE AND TECHNOLOGY, priority 2018, published 2019)

Tests used:
OT-1 T cells = experiment: Co-culture of OT-1 T cells with phagocytes isolated from B16F10-Ova-bearing mice (IFN-γ); assay type: in vivo
Method: In addition, the expression of IFN-γ in OT-1 T cells co-cultured with macrophages and dendritic cells isolated from the tumor-draining lymph nodes and the tumor tissues in the B16F10-Ova cancer model mice was assessed using IFN-γ ELISA kit (R&D Systems, Inc, USA). It was confirmed that the amount of IFN-γ was increased when the dendritic cells isolated from the tumor-draining lymph nodes and the tumor tissues were co-cultured with OT-1 T cells (FIG. 14D). However, there was no change in the amount of IFN-γ when macrophages and OT-1 T cells were co-cultured.
The present inventors investigated whether the combined administration of Y27632 and doxorubicin induces immunity enhancement through CD8 T cells. For this purpose, dendritic cells isolated from tumor-draining lymph nodes of B16F10-Ova-bearing cancer model mice were co-cultured with OT-1 T cells, and then the amount of IFN-γ was measured by IFN-γ ELISA kit (R&D Systems, USA). […] In addition, it was confirmed that the amount of IFN-γ-positive T cells increased when the dendritic cells derived from mice administered with the combined administration were co-cultured with OT-1 T cells (FIG. 18G).

B16F10-Ova cells [1] = experiment: B16F10-Ova tumor model; assay type: in vivo, C57L/B6 wild-type mice; details: 10 mg/kg intravenous
Method: CT26.CL25 cancer cells (1×10^6) expressing β-galactosidase were subcutaneously injected into the left back of a Balb/c wild type mice to generate a tumor model Similarly, an […] tumor model was prepared by subcutaneously injecting melanoma cell line B16F10-Ova cells (5×10^5) into the left back of C57L/B6 wild-type mice to induce cancer.
In the case of the CT26.CL25 cancer cell line, 6 days after the injection of the cancer cells, and in the case of B 16F10-Ova, 9 days after the injection of the cancer cells, Y27632 was administered by intravenous injection at a dose of 10 mg/kg as indicated in FIG. 8a. In the case of the CT26.CL25 model, the mice were sacrificed on the 22nd day after the injection of the cancer cells and in the case of the B16F10-Ova cancer model, the mice were sacrificed on the 20th day after the injection of the cancer cells (FIG. 8A). As a negative control, phosphate-buffered saline was administered instead of Y27632.
The tumor tissues of the mice were excised, an ex vivo image was taken and the tumor tissue were weighed (FIG. 8B). In addition, before the mice were sacrificed, changes in body weights were measured at intervals of 3 days from the 6th day of the cancer cell injection in the CT26.CL25 cancer model and at intervals of 3 days from the 9th day in the B16F10-Ova cancer model (FIG. 8c). Length (L) and width (W) of the tumor tissues were measured, and the volume of the tumor tissues over time was calculated using the following formula (FIGS. 8D and 8E):
The volume of tumor tissue (V[mm^3])=(L[mm])[…] (W[mm])^2×0.5.

CD103 DCs = experiment: Phagocytosis of cancer cells by dendritic cells excised from tumor tissues; assay type: in vivo; details: compared with CD103 DCs from control mice
Description: The present inventors excised dendritic cells from tumor tissues and analyzed the phagocytosis of dendritic cells against cancer cells in vitro using the same method as described in Example 1-1.

[2] = system: macrophages (F4/80+ cells) and dendritic cells (CD11c+ cells); experiment: In vivo phagocytosis of injected apoptotic thymocytes by spleen phagocytes; design: species or system mice; details: 10 mg/kg intraperitoneally; spleen after 1 hour
Method: The present inventors investigated whether the phagocytosis caused by the ROCK inhibitor could be enhanced not only in vitro but also in vivo. For this purpose, thymocytes stained with CFSE (carboxyfluorescein succinimidyl ester, Thermo Fisher Scientific, Inc., USA) and in which apoptosis was induced by 1 μM dexamethasone were injected to the blood vessel of mice who were pre-injected with 10 mg/kg of Y27632 intraperitoneally. After 1 hour, the spleen was extracted from the mice and the spleen was single celled. The phagocytic activities of macrophages (F4/80^+ cells) and dendritic cells (CD11c^+ cells) against apoptotic thymocytes were analyzed (FIGS. 7B and 7C).

B16F10-Ova cells [3] = experiment: Annexin V flow cytometry for direct death of cancer cells; assay type: cell-based, mouse; details: 30 μM, 24 hours
Method: (§1) Specifically, the present inventors treated CT26.CL25 cells and B16F10-Ova cells with 30 μM of the ROCK inhibitor Y27632 for 24 hours, and performed flow cytometry analysis using FITC-anti-Annexin V antibodies (Abcam, USA). On the other hand, cells were treated with 10 μg of TRAIL, 0.25 μM of doxorubicin, 2.5 μM of doxorubicin, or 25 μM of doxorubicin, respectively, for 4 hours, as positive controls.

CT26.CL25 cells = experiment: as above; assay type: cell-based, mouse; details: 30 μM, 24 hours
Method: as §1

B16F10-Ova = B16F10-Ova tumor model, Y27632 combined with a chemotherapeutic; assay type: in vivo, mice; details: doxorubicin 5 mg/kg, Y27632 10 mg/kg
Method: Specifically, tumor suppression was examined by administering 5 mg/kg of doxorubicin and 10 mg/kg of Y27632 alone or in combination to B16F10-Ova-bearing tumor model mice prepared as in Example 2-1. Doxorubicin was administered three times at intervals of 3 days from the 8th day after the injection of cancer cells, and Y27632 was administered at a dose of 10 mg/kg continuously for two consecutive days via intravenous injection followed by a day of rest as a cycle, followed by 3 cycles of 3-day intervals (FIG. 18A). The mice were sacrificed on the 20th day after the injection of cancer cells, the tumor tissue was excised, and ex vivo images were taken and the tumor tissues were weighed. Before the sacrifice of the mice, the tumor volumes over time were calculated as described above using calipers at intervals of 3 days from the 8th day after the injection of the cancer cells.
In order to confirm whether CD8^+ T cells infiltrates into tumor tissues, tumor tissues excised from an experimental animal were sectioned and subjected to fluorescence immunohistochemistry using anti-CD8 antibodies.
First, to determine the cisplatin therapeutic concentration, a B16F10-Ova tumor model was constructed in a nude mouse lacking T cell immunity and then an experiment was conducted to confirm the concentration of cisplatin having an anticancer effect similar to that of doxorubicin at 5 mg/kg. […] Thus, in order to evaluate the therapeutic effect of cisplatin and the ROCK inhibitor Y27632 in the B16F10-Ova-bearing tumor model, 3 mg/kg of cisplatin was administered according to the administration schedule shown in FIG. 18A.

[4] = system: bone marrow-derived dendritic cells (BMDCs); experiment: Phagocytosis of cancer cells by bone marrow-derived dendritic cells in vitro; assay type: cell-based, mice; details: 30 μM, 1 hour
[5] = from tumor-draining lymph nodes

In the case of `C[C@@H](N)[C@H]1CC[C@H](C(=O)Nc2ccncc2)CC1` [Y27632], the “amount of IFN-γ, dendritic cells co-cultured with OT-1 T cells” value (OT-1 T cells; dendritic cells from tumor-draining lymph nodes and tumor tissues) is reported as “increased”, the “T cell priming (amount of IFN-γ), dendritic cells co-cultured with OT-1 T cells” value (OT-1 T cells; dendritic cells from tumor-draining lymph nodes, doxorubicin study) is reported as “increased” and the “proportion of IFN-γ-positive T cells, dendritic cells co-cultured” value (OT-1 T cells; [5]) is reported as “increased”. The “proportion of IFN-γ-positive T cells, macrophages co-cultured” value (OT-1 T cells; [5]) was “did not affect”, the “amount of IFN-γ, macrophages co-cultured with OT-1 T cells” value (OT-1 T cells; mouse, in vivo) was “no change” and the “body weight of the mice” value (B16F10-Ova cells [1]) was “no significant change”. The “volume of the tumors” value (B16F10-Ova cells [1]) was “significantly decreased”, the “weight of the tumors” value (B16F10-Ova cells [1]; day 20) was “significantly decreased” and the “phagocytosis against cancer cells of CD103 DCs isolated from treated mice” value (CD103 DCs) was “significantly enhanced”. The “phagocytosis of spleen dendritic cells against apoptotic thymocytes” value [2] was “significantly enhanced”, the “phagocytosis of spleen macrophages against apoptotic thymocytes” value [2] was “significantly enhanced” and the “death of cancer cells (Annexin V)” value (B16F10-Ova cells [3]) was “not to increase the death of cancer cells”. For the same compound, the “death of cancer cells (Annexin V)” value (CT26.CL25 cells) was “not to increase the death of cancer cells”, the “complete regression of the tumor” value (B16F10-Ova) was “not observed” and the “infiltration of CD8+ T cells into tumor tissues” value (B16F10-Ova) was “slight infiltration”. For the same compound, the “phagocytosis of BMDCs against non-immunogenic apoptosis-induced cancer cells by cisplatin” value ([4]; CT26.CL25 or B16F10-Ova) was “increased similarly to that by doxorubicin treatment” and the “phagocytosis of BMDCs against necrosis-induced cancer cells” value ([4]; necrosis at 55° C. for 30 minutes) was “increased similarly to that by doxorubicin treatment”.
